Assay results from article PMC6658998, “Pharmacological characterization of the seven human NOX isoforms and their inhibitors” (Redox Biology, 2019).

Legend:
human NOX1 = target: T1, human NOX1 (Homo sapiens, UniProt Q9Y5S8); experiment: WST-1 O2•- detection in NOX1-expressing CHO cells; type: cell-based; conditions: NOX1 expressing cells, concentration-response
T1 construct: expressed in transfected cells; host or cells: CHO
T1 sequence (Q9Y5S8 1-564): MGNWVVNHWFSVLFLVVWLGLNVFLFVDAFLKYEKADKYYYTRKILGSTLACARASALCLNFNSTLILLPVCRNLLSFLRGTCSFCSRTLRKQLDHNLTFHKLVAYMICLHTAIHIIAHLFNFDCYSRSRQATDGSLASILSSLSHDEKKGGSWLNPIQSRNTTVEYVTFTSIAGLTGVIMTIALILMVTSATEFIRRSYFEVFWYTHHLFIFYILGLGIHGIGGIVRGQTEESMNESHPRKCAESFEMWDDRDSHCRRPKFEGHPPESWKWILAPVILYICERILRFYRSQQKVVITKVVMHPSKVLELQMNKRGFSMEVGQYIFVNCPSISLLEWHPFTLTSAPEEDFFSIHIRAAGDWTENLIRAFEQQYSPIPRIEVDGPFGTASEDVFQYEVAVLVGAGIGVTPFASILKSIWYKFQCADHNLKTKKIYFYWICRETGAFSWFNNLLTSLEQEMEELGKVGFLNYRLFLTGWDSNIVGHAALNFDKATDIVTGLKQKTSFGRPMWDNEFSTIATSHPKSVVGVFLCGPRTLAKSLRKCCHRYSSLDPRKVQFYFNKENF
T1 sequence (P13498 1-195 partner): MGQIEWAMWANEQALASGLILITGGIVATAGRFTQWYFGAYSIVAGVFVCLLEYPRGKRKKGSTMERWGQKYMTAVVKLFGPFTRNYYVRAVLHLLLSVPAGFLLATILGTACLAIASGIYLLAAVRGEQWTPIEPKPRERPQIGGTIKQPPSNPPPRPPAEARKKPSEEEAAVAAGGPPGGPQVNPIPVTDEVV

human NOX4 = target: T2, human NOX4 (Homo sapiens, UniProt Q9NPH5); experiment: WST-1 O2•- detection in tetracycline-induced NOX4 HEK293 T-REx cells; type: cell-based; conditions: NOX4 expressing cells, concentration-response
T2 sequence (Q9NPH5 1-578): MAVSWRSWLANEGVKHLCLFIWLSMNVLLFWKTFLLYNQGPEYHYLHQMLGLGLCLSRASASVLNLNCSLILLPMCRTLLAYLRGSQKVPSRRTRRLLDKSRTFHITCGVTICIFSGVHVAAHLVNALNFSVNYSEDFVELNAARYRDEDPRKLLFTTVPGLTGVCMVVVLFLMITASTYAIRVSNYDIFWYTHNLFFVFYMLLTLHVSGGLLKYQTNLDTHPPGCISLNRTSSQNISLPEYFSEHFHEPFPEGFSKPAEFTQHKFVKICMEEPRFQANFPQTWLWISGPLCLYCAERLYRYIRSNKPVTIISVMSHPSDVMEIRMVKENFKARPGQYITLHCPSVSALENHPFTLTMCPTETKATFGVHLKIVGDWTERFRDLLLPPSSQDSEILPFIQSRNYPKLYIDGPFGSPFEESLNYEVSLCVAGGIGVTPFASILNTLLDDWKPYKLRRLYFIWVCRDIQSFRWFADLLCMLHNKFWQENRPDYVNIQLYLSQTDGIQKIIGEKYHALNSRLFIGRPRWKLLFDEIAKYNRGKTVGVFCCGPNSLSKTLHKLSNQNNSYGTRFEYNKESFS
T2 sequence (P13498 1-195 partner): T1 sequence (P13498 1-195 partner)

[1] = Cell-free Amplex Red/HRP assay with 10 μM H2O2 (H2O2 scavenging / HRP inhibition); conditions: H2O2 alone
NOX1 = target: NOX1; set-up: method as in PMID 27273790; conditions: documented values, measured using Amplex Red/HRP assay; cited from earlier work
NOX5 = target: NOX5; set-up: method as in PMID 27273790; conditions: documented values, measured using Amplex Red/HRP assay; cited from earlier work

Activity on NOX1 in the WST-1 assay (human NOX1): inactive
Activity on NOX4 in the WST-1 assay (human NOX4): inactive
Compound: CN(C)c1cccc(-c2c3c(=O)n(-c4ccccc4Cl)[nH]c3cc(=O)n2C)c1 [GKT137831]
Effect on Amplex red/HRP signal in the presence of H2O2 alone [1]: inhibits the Amplex red/HRP signal
Ki NOX1 (NOX1): nanomolar range
Ki NOX5 (NOX5): nanomolar range
